Laboratory results taken from patent publication US20250179143A1, “SYSTEMS AND METHODS FOR CHAPERONE-MEDIATED LIGAND EXCHANGE ON MHC-I AND MHC-RELATED MOLECULES USING CHICKEN TAPBPR” (priority 2022, published 2025).
Non-standard residues stand in square brackets, D forms with d. No end group written: not given here.

Tests used:
[1] = DSF thermal stability of pMHC-I molecules; assay type: physicochemical
HLA-A*02:01 = HLA-A*02:01 (Homo sapiens, UniProt P04439, D140Y/D185E/D98H/E176V/E277Q/G131W/G231S/I119V/I121R/I166T/I218V/L300P/L318F/N151K/N90K/P208A/P217A/Q86G/Q94H/R138H/R169H/T345S); test: Fluorescence polarization (FP) peptide exchange
[2] = biological target: chTAPBPR/HLA-B*08:01 complex (Homo sapiens, UniProt P01889, A93T/A95T/D138N/E176V/E187T/K202T/Q94N/R180D/S35A/V36M/Y33D/Y91F); test: EMSA of peptide-receptive complex with peptides; settings: 10-fold molar excess peptide
[3] = HLA-A*02:01 refolded with the named peptide
[4] = absence or presence of 10 nM hTAPBPR

| Substance | Tm [1, 3] [°C] | exchange of βF placeholder peptide on HLA-A*02:01 for fluorescent peptide (HLA-A*02:01; 5000 nM hTAPBPR) | also measured |
| --- | --- | --- | --- |
| KILGβFVFTV [βF-P5] | 62 | allowed peptide loading | – |
| KILGFVFJV (photolabile J residue; VARIANT 8 J=3-amino-3-(2-nitrophenyl)-propionic acid) [PhotoA02, reference compound] | 52 | – | – |
| ILDTAGQEEY [RAS, reference compound] | – | – | Tm ([1]; HLA-A*01:01 refolded with the named peptide): 52 °C |
| βFILGFVFTV [βF-P1] | – | complete fluorescent peptide exchange | – |
| KILβFFVFTV [βF-P4] | – | complete fluorescent peptide exchange | – |
| KILGFVβFTV [βF-P7] | 63 | allowed peptide loading | exchange of βF placeholder peptide on HLA-A*02:01 for fluorescent peptide (HLA-A*02:01; [4]): no peptide exchange |
| KILGFVF(BF)V [BetaA02] | 53 | complete fluorescent peptide exchange | – |
| ALWMRLLPL [T1D30] | – | – | pMHC-I bands upon incubation of the complex with the peptide [2]: discrete pMHC-I bands |
| A*02:01/βFILGFVFTV: HLA-A*02:01 loaded with βFILGFVFTV (SEQ ID NO: 66) ([βPhe]ILGFVFTV-OH; not fully specified; printed as βFILGFVFTV; also: loaded in HLA-A*02:01 complex) | – | – | Tm (° C.) ([1]; HLA-A*02 subtypes loaded with KILGFVFβFV and HLA-A*02:01 loaded with βF scanning peptides): 53.9 °C |
| FLRGRAYGL [EBV] | – | – | pMHC-I bands upon incubation of the complex with the peptide [2]: discrete pMHC-I bands |
| KILGFβFFTV [βF-P6] | 61 | allowed peptide loading | exchange of βF placeholder peptide on HLA-A*02:01 for fluorescent peptide (HLA-A*02:01; [4]): no peptide exchange |
| MLYQHLLPL [T1D95] | – | – | pMHC-I bands upon incubation of the complex with the peptide [2]: discrete pMHC-I bands |
| AIFQSSMTK [HIV] | – | – | pMHC-I bands upon incubation of the complex with the peptide [2]: not |
| KIβFGFVFTV [βF-P3] | 58 | complete fluorescent peptide exchange | – |
